A word on the IC50: it is the concentration needed to halve the response being measured. Read a high IC50 as weaker potency in that assay.

Experiment [1] addresses PTRGER4 (EP4) (Homo sapiens (Human), UniProt P35408). In words: hEP4 b-arrestin assay (PathHunter HEK 293 PTGER4 b-arrestin cells). It counts as cell-based. The conditions noted are these: hEP4 b-arrestin assay (values without asterisk). From the text:
(§1) The assay is using the PathHunter™ HEK 293 PTGER2 and PTGER4 b-arrestin cell lines from DiscoverX. The system is based on the Enzyme Fragment Complementation Technology. Two complementing fragments of the b-galactosidase enzyme are expressed within stably transfected cells. The larger portion of b-gal, termed EA for Enzyme Acceptor, is fused to the C-terminus of b-arrestin 2. The smaller fragment, termed ProLink™ tag, is fused to PTGER2 (EP2) or PTRGER4 (EP4) at the C-terminus. Upon activation, b-arrestin is recruited which forces the interaction of ProLink and EA, allowing complementation of the two fragments of b-gal and the formation of a functional enzyme which is capable of hydrolysing the substrate and generating a chemiluminescent signal.
(§2) 5000 cells per well of a 384 well plate (white with white bottom Greiner 781080) are seeded in 20 ul per well of GM. Plate is incubated at 37° C., 5% C02 for 24 hours.
Plate is pre-incubated 15 minutes at 37° C. Then five microliters of PGE2 (final conc. 20 nM) are transferred into the assay plate. Plate is incubated 120 minutes at 37° C.
Twelve μl of reagent are transferred to the assay plate and incubate for 1 hour at room temperature in the dark. Luminescence counts are read on a BMG Fluostar Optima reader according to manufacturer's instructions. For each compound concentration calculate of the percentage of activity compared to DMSO control value as average±STDEV.

The target in experiment [2] is PTGER2 (EP2) (Homo sapiens (Human), UniProt P43116). Description: hEP2 b-arrestin assay (PathHunter HEK 293 PTGER2 b-arrestin cells). Type of experiment: cell-based. The conditions noted are these: hEP2 b-arrestin assay (values without asterisk).
Source text: as §1, §2
Plate is pre-incubated 15 minutes at 37° C. Then five microliters of PGE2 (final conc. 5 μM) are transferred into the assay plate. Plate is incubated 120 minutes at 37° C.
Twelve μl of reagent are transferred to the assay plate and incubate for 1 hour at room temperature in the dark. Luminescence counts are read on a BMG Fluostar Optima reader according to manufacturer's instructions. For each compound concentration calculate of the percentage of activity compared to DMSO control value as average±STDEV. (each concentration is measured in duplicate)

Structures are written as SMILES.

Sequence of PTGER2 (EP2) (P43116 whole entry): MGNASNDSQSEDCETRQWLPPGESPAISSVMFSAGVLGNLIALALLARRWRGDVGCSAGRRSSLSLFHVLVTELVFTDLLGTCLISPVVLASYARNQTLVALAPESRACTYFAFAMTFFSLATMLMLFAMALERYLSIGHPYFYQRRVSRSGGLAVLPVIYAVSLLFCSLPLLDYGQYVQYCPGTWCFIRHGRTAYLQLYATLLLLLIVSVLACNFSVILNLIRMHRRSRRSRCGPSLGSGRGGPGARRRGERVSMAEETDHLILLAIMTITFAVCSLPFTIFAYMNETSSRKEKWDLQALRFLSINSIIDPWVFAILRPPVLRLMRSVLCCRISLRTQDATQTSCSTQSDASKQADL
Sequence of PTRGER4 (EP4) (P35408 whole entry, looked up, the tested form may be a part): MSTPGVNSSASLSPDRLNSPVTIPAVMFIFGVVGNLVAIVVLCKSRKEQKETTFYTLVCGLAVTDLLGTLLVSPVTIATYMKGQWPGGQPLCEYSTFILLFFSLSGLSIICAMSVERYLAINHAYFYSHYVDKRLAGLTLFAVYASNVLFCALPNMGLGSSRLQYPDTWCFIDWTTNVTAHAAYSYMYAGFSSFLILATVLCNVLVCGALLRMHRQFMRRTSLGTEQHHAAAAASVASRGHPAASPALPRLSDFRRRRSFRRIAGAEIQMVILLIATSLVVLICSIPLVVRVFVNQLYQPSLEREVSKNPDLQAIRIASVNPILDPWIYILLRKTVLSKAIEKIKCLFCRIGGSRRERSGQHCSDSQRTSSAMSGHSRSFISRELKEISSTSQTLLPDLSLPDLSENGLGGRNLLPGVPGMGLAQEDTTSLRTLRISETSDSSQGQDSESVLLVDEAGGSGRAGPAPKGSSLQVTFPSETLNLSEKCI

Take `CCOc1cc(-c2cc(NCCn3c(C#N)cc4c(OC)ccc(F)c43)ncn2)ccc1-c1noc(=O)[nH]1` [Example 820]: the values for the IC50 in experiment [1] and in experiment [2] were 2 nM and 6 nM, respectively.
As to `COc1ccc(F)c2c1cc(C#N)n2CCNc1cc(-c2ccc(-c3nc(C)[nH]c3C)cc2)ncn1` [Example 821, 1-(2-{6-[4-(2,5-Dimethyl-1H-imidazol-4-yl)-phenyl]-pyrimidin-4-ylamino}-ethyl)-7-fluoro-4-methoxy-1H-indole-2-carbonitrile], the IC50 in experiment [1] worked out at 2 nM; in experiment [2] it was 4 nM.
For the compound `CCc1cc(-c2cc(NCCn3c(C#N)cc4c(OC)ccc(F)c43)ncn2)ccc1O` [Example 822, 1-{2-[6-(3-Ethyl-4-hydroxy-phenyl)-pyrimidin-4-ylamino]-ethyl}-7-fluoro-4-methoxy-1H-indole-2-carbonitrile], the IC50 was determined as 5 nM in experiment [1] and 6 nM in experiment [2].
For the compound `COc1ccc(F)c2c1cc(C#N)n2CCNc1cc(-c2ccc(-c3ncn(C)c3C)cc2)ncn1` [Example 823, 1-(2-{6-[4-(1,5-Dimethyl-1H-imidazol-4-yl)-phenyl]-pyrimidin-4-ylamino}-ethyl)-7-fluoro-4-methoxy-1H-indole-2-carbonitrile], the concentration for half-maximal inhibition (IC50) in experiment [1] and in experiment [2] was 5 nM in each case.
On to `COc1ccc(F)c2c1cc(C#N)n2CCNc1cc(-c2ccc(-c3cn(C)c(C)n3)cc2)ncn1` [Example 824, 1-(2-{6-[4-(1,2-Dimethyl-1H-imidazol-4-yl)-phenyl]-pyrimidin-4-ylamino}-ethyl)-7-fluoro-4-methoxy-1H-indole-2-carbonitrile], for which the half-maximal inhibitory concentration (IC50) came to 7 nM in experiment [1] and 8 nM in experiment [2].
The like results for `COc1ccc(F)c2c1cc(C#N)n2CCNc1cc(-c2ccc(-c3noc(=O)[nH]3)cc2)ncn1` [Example 825] were, in that order, 8 nM and 14 nM.
For `COc1cc(-c2cc(NCCn3c(C#N)cc4c(OC)ccc(F)c43)ncn2)sc1C1(O)COC1` [Example 826, 7-Fluoro-1-(2-{6-[5-(3-hydroxy-oxetan-3-yl)-4-methoxy-thiophen-2-yl]-pyrimidin-4-ylamino}-ethyl)-4-methoxy-1H-indole-2-carbonitrile], in that order: 8 nM and 13 nM.
For `COc1ccc(F)c2c1cc(C#N)n2CCNc1cc(-c2ccc(-c3cn(C)c(C4CC4)n3)cc2)ncn1` [Example 827, 1-(2-{6-[4-(2-Cyclopropyl-1-methyl-1H-imidazol-4-yl)-phenyl]-pyrimidin-4-ylamino}-ethyl)-7-fluoro-4-methoxy-1H-indole-2-carbonitrile], in that order: 7 nM and 16 nM.
Regarding `COc1ccc(F)c2c1cc(C#N)n2CCNc1cc(-c2ccc(OCC(=O)O)c(OC(F)(F)F)c2)ncn1` [Example 828, (4-{6-[2-(2-Cyano-7-fluoro-4-methoxy-indol-1-yl)-ethylamino]-pyrimidin-4-yl}-2-trifluoromethoxy-phenoxy)-acetic acid], the values for the IC50 in experiment [1] and in experiment [2] were 11 nM and 10 nM, respectively.
Turning to `COc1ccc(F)c2c1cc(C#N)n2CCNc1cc(-c2ccc(-c3cnc[nH]3)cc2)ncn1` [Example 829, 7-Fluoro-1-(2-{6-[4-(3H-imidazol-4-yl)-phenyl]-pyrimidin-4-ylamino}-ethyl)-4-methoxy-1H-indole-2-carbonitrile], the half-maximal inhibitory concentration (IC50) is 12 nM in experiment [1] and 15 nM in experiment [2].
For `CCOc1cc(-c2cc(NCCn3c(C)cc4c(OC)ccc(F)c43)ncn2)ccc1-c1noc(=O)[nH]1` [Example 830, 3-(2-Ethoxy-4-{6-[2-(7-fluoro-4-methoxy-2-methyl-indol-1-yl)-ethylamino]-pyrimidin-4-yl}-phenyl)-[1,2,4]oxadiazol-5(4H)-one], in that order: 12 nM and 3 nM.
Regarding `COc1ccc(F)c2c1cc(C#N)n2CCNc1cc(-c2ccc(-c3nc(=O)[nH]o3)cc2)ncn1` [Example 831, 7-Fluoro-1-(2-{6-[4-(3-oxo-2,3-dihydro-[1,2,4]-oxadiazol-5-yl)-phenyl]-pyrimidin-4-ylamino}-ethyl)-4-methoxy-1H-indole-2-carbonitrile], the IC50 came out at 17 nM in experiment [1] and 19 nM in experiment [2].
As for `COc1ccc(F)c2c1cc(C)n2CCNc1cc(-c2cc(OCC(F)(F)F)c(C(=O)O)s2)ncn1` [Example 832, 5-{6-[2-(7-Fluoro-4-methoxy-2-methyl-indol-1-yl)-ethylamino]-pyrimidin-4-yl}-3-(2,2,2-trifluoro-ethoxy)-thiophene-2-carboxylic acid], the half-inhibitory concentration (IC50) worked out at 25 nM in experiment [1] and 5 nM in experiment [2].
For `CCCOc1cc(-c2cc(NCCn3c(C#N)cc4c(OC)ccc(F)c43)ncn2)ccc1CC(=O)O` [Example 833, (4-{6-[2-(2-Cyano-7-fluoro-4-methoxy-indol-1-yl)-ethylamino]-pyrimidin-4-yl}-2-propoxy-phenyl)-acetic acid], in that order: 27 nM and 62 nM.
For `CCc1cc(-c2cc(NCCn3c(C#N)cc4c(OC)ccc(F)c43)ncn2)ccc1OCC(=O)O` [Example 834, (4-{6-[2-(2-Cyano-7-fluoro-4-methoxy-indol-1-yl)-ethylamino]-pyrimidin-4-yl}-2-ethyl-phenoxy)-acetic acid], in that order: 28 nM and 15 nM.
Regarding `CCOc1cc(-c2cc(NCCn3c(C)cc4c(C)cc(F)cc43)ncn2)ccc1-c1noc(=O)[nH]1` [Example 835, 3-(2-Ethoxy-4-{6-[2-(6-fluoro-2,4-dimethyl-indol-1-yl)-ethylamino]-pyrimidin-4-yl}-phenyl)-[1,2,4]oxadiazol-5(4H)-one], the concentration for half-maximal inhibition (IC50) in experiment [1] was determined as 31 nM; in experiment [2], 19 nM.
For `[2H]C([2H])(Nc1cc(-c2cc(Cl)c(C(=O)O)c(OCCCC)c2)ncn1)C([2H])([2H])n1c(C)cc2c(OC)ccc(F)c21` [Example 836, 2-butoxy-6-chloro-4-(6-((2-(7-fluoro-4-methoxy-2-methyl-1H-indol-1-yl)ethyl-1,1,2,2-d4)amino)pyrimidin-4-yl)benzoic acid], in that order: 32 nM and 7 nM.
For the compound `CCOc1cc(-c2cc(NCCn3c(C)cc4c(C)c(F)cc(Cl)c43)ncn2)sc1C(=O)O` [Example 837, 5-{6-[2-(7-Chloro-5-fluoro-2,4-dimethyl-indol-1-yl)-ethylamino]-pyrimidin-4-yl}-3-ethoxy-thiophene-2-carboxylic acid], the 50% inhibitory concentration (IC50) worked out at 39 nM in experiment [1] and 28 nM in experiment [2].
Regarding `COc1cc(F)cc2c1cc(C)n2CCNc1cc(-c2cc(OCC(F)(F)F)c(C(=O)O)s2)ncn1` [Example 838, 5-{6-[2-(6-Fluoro-4-methoxy-2-methyl-indol-1-yl)-ethylamino]-pyrimidin-4-yl}-3-(2,2,2-trifluoro-ethoxy)-thiophene-2-carboxylic acid], the IC50 in experiment [1] worked out at 41 nM; in experiment [2] it was 4 nM.
In the case of `N#Cc1c(F)c2ccccc2n1CCNc1cc(-c2cc(C(F)(F)F)c(C(=O)O)s2)ncn1` [Example 840, 5-{6-[2-(2-Cyano-3-fluoro-indol-1-yl)-ethylamino]-pyrimidin-4-yl}-3-trifluoromethyl-thiophene-2-carboxylic acid], the IC50 was determined as 47 nM in experiment [1] and 48 nM in experiment [2].

These data come from US12011444B2, “N-substituted indole derivatives as PGE2 receptor modulators” (Idorsia Pharmaceuticals Ltd, priority 2015, dated 2024).
